Laboratory results reported in patent US20050130989A1, “N-arylheteroaromatic products compositions containing them and use thereof” (Aventis Pharma S. A., priority 2003, published 2005).

These compounds were tested against T1, tubulin (Sus scrofa, UniProt P02550+P02554) (assay: Evaluation of the inhibition of tubulin polymerization (turbidimetry)). Conditions: tubulin 10 μm (1 mg/ml), 37° C., turbidity at 350 nm; concentration that inhibits the rate of polymerization by 50%; read-out: Inhibition of tubulin polymerization IC 50 (μm).
T1 construct: Tubulin is purified from pig brain according to published methods; from tissue; host or cells: pig brain
T1 sequence (P02550 whole entry): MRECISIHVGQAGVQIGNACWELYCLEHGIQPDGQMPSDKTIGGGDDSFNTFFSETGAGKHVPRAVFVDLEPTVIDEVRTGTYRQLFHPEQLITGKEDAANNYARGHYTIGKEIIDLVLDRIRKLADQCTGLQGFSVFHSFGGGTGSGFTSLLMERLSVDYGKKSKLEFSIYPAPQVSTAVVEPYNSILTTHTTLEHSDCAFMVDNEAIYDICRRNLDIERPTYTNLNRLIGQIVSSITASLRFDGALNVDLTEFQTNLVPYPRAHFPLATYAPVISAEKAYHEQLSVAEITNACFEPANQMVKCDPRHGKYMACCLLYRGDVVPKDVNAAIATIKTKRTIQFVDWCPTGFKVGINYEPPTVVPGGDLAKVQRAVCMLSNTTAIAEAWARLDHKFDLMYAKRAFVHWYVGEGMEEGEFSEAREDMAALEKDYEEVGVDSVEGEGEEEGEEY
T1 sequence (P02554 whole entry): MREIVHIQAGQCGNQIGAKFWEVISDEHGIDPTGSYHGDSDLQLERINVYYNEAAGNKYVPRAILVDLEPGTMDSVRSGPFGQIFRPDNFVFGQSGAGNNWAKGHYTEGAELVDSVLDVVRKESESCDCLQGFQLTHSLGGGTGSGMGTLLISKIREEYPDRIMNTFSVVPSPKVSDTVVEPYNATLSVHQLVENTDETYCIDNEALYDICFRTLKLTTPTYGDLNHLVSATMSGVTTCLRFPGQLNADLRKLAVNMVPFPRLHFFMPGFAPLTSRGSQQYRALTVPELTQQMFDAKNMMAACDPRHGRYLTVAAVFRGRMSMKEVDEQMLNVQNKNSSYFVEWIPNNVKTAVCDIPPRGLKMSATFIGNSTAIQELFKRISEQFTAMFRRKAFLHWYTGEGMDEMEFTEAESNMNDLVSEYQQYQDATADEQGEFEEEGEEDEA
Format: biochemical, pig
Experimental: Tubulin is purified from pig brain according to published methods (Shelanski et al., 1973, Proc. Natl. Acad. Sci. USA, 70, 765-768. Weingarten et al., 1975, Proc. Natl. Acad. Sci. USA, 72, 1858-1862). Briefly, the brains are ground and centrifuged in an extraction buffer. The tubulin contained in the supernatant of the extract undergoes two successive cycles of polymerization at 37° C. and depolymerization at 4° C., before being separated from the MAPs (Microtubule Associated Proteins) by chromatography on a phosphocellulose P11 column (Whatman). The tubulin thus isolated is more than 95% pure. It is stored in a buffer known as RB/2 30% glycerol, the composition of which is 50 mM MES-NaOH [2-(N-morpholino)ethanesulfonic acid], pH 6.8; 0.25 mM MgCl2; 0.5 mM EGTA; 30% glycerol (v/v), 0.2 mM GTP (guanosine-5′-triphosphate).
The polymerization of tubulin to microtubules is monitored by turbidimetry as follows: the tubulin is adjusted to a concentration of 10 μm (1 mg/ml) in RB/2 30% glycerol buffer to which 1 mM GTP and 6 mM MgCl2 are added. The polymerization is triggered by an increase in temperature from 6° C. to 37° C. in a cuvette with an optical path length of 1 cm, placed in a UVIKON 931 spectrophotometer (Kontron) equipped with a thermostatically maintained cuvette holder. The increase in the turbidity of the solution is monitored at 350 nm.
The products are dissolved at 10 mM in DMSO and added at variable concentrations (0.5 to 10 μm) to the tubulin solution before polymerization. The IC50 value is defined as the concentration of product that inhibits the rate of polymerization by 50%.

SMILES | IC50 [µM]
COc1ccc(-n2nc(C)cc2C(=O)N2CCN(c3ccccc3)CC2)cc1 [3/1] | 20
CSc1ccccc1N1CCN(C(=O)c2cc(C)nn2-c2ccccc2)CC1 [3/12] | 3
Cc1cc(C(=O)N2CCN(c3cc(Cl)ccc3C)CC2)n(-c2cccc(Cl)c2)n1 [3/70] | 12.5
Cc1cc(C(=O)N2CCN(c3ccc4c(c3)OCCO4)CC2)n(-c2cccc(F)c2)n1 [3/100] | < 25
Cc1cc(C(=O)N2CCN(c3ccc(C)c(C)c3)CC2)n(-c2ccc(F)cc2)n1 [3/103] | 21
Cc1cc(C(=O)N2CCN(c3ccccn3)CC2)n(-c2ccccc2)n1 [3/107] | 12.5
Cc1ccc(C)c(N2CCN(C(=O)c3cc(C)nn3-c3ccccc3)CC2)c1 [3/108] | 3.5
Cc1cc(C(=O)N2CCN(c3ccccc3F)CC2)n(-c2ccccc2)n1 [3/111] | 12.5
Cc1cccc(-n2nc(C)cc2C(=O)N2CCN(c3cccc(C)c3C)CC2)c1 [3/114] | 0.8
CCOc1ccccc1N1CCN(C(=O)c2cc(C)nn2-c2cccc(C)c2)CC1 [3/115] | 20
Cc1cc(C(=O)N2CCN(c3cc(Cl)ccc3C)CC2)n(-c2ccc(F)cc2)n1 [3/117] | 7
Cc1cc(C(=O)N2CCN(c3cccc(C)c3C)CC2)n(-c2cccc(Cl)c2)n1 [3/122] | 7.5
Cc1cc(C(=O)N2CCN(c3cccc4ccccc34)CC2)n(-c2cccc(Cl)c2)n1 [3/124] | 12
COc1ccc(Cl)cc1N1CCN(C(=O)c2cc(C)nn2-c2cccc(Cl)c2)CC1 [3/127] | 1.8
COc1ccccc1N1CCN(C(=O)c2cc(C)nn2-c2ccc(C)cc2)CC1 [3/130] | < 25
COc1cccc(-n2nc(C)cc2C(=O)N2CCN(c3ccccc3C)CC2)c1 [3/134] | 4.3
COc1cccc(-n2nc(C)cc2C(=O)N2CCN(c3ccccc3SC)CC2)c1 [3/137] | 4.2
COc1cccc(N2CCN(C(=O)c3cc(C)nn3-c3ccccc3)CC2)n1 [Example E8, [4-(6-Methoxypyrid-2-yl)piperazin-1-yl](5-methyl-2-phenyl-2H-pyrazol-3-yl)-methanone] | 2
Cc1ccc(C)c(-n2nc(C)cc2C(=O)N2CCN(c3cccc(Cl)c3)CC2)c1 [Example E47, [4-(3-Chlorophenyl)piperazin-1-yl][2-(2,5-dimethylphenyl)-5-methyl-2H-pyrazol-3-yl]methanone] | 1.55

SMILES | IC50 [µM]
Cc1cc(C(=O)N2CCN(c3cccc(Cl)c3)CC2)n(-c2ccc([N+](=O)[O-])cc2)n1 [Example E49, [4-(3-Chlorophenyl)piperazin-1-yl][5-methyl-2-(4-nitrophenyl)-2H-pyrazol-3-yl]-methanone] | 20.2
O=C(c1cc(Br)nn1-c1ccc(Br)cc1)N1CCN(c2cccc(Cl)c2)CC1 [Example E64, [5-Bromo-2-(4-bromophenyl)-2H-pyrazol-3-yl][4-(3-chlorophenyl)piperazin-1-yl]methanone] | 3.5
COc1cc(OC)cc(N2CCN(C(=O)c3cc(Br)nn3-c3ccc(Br)cc3)CC2)c1 [Example E81, [5-Bromo-2-(4-bromophenyl)-2H-pyrazol-3-yl][4-(3,5-dimethoxyphenyl)-piperazin-1-yl]methanone] | 17.1
COC(=O)CCC(=O)Nc1cccc(N2CCN(C(=O)c3cc(C)nn3-c3ccccc3)CC2)c1 [Example E83, Methyl N-{3-[4-(5-methyl-2-phenyl-2H-pyrazole-3-carbonyl)piperazin-1-yl]-phenyl}succinamate] | 20
O=C(c1cc(CSc2ccccc2)nn1-c1ccccc1)N1CCN(c2cccc(Cl)c2)CC1 [Example E102, [4-(3-Chlorophenyl)piperazin-1-yl](2-phenyl-5-phenylsulfanylmethyl-2H-pyrazol-3-yl)methanone] | 18
CCOC(=O)/C=C/c1cc(C(=O)N2CCN(c3cc(OC)cc(OC)c3)CC2)n(-c2ccccc2)n1 [Example E112, Ethyl E-3-{5-[4-(3,5-dimethoxyphenyl)piperazine-1-carbonyl]-1-phenyl-1H-pyrazol-3-yl}acrylate] | 3
COCOCc1cc(C(=O)N2CCN(c3cccc(C(N)=O)c3)CC2)n(-c2ccccc2)n1 [Example E113, 3-[4-(5-Methoxymethoxymethyl-2-phenyl-2H-pyrazole-3-carbonyl)piperazin-1-yl]benzamide] | 9.2
COc1cc(OC)cc(N2CCN(C(=O)c3cc(-c4ccsc4C=O)nn3-c3ccccc3)CC2)c1 [Example E114, 3-{5-[4-(3,5-Dimethoxyphenyl)piperazine-1-carbonyl]-1-phenyl-1H-pyrazol-3-yl}thiophene-2-carboxaldehyde] | 12.9
COc1cc(OC)cc(N2CCN(C(=O)c3cc(CN)nn3-c3ccccc3)CC2)c1 [Example E120, (5-Aminomethyl-2-phenyl-2H-pyrazol-3-yl)[4-(3,5-dimethoxyphenyl)piperazin-1-yl]methanone] | 17.9
COc1cc(OC)cc(N2CCN(C(=O)c3cc(COCCF)nn3-c3ccccc3)CC2)c1 [Example E123, [4-(3,5-Dimethoxyphenyl)piperazin-1-yl][5-(2-fluoroethoxymethyl)-2-phenyl-2H-pyrazol-3-yl]methanone] | 2.5
COc1cc(OC)cc(N2CCN(C(=O)c3cc(C(O)C4CCCC4)nn3-c3ccccc3)CC2)c1 (stereo not shown) [Example E124, [5-(Cyclopentylhydroxymethyl)-2-phenyl-2H-pyrazol-3-yl][4-(3,5-dimethoxy-phenyl)piperazin-1-yl]methanone] | < 25
CCC(O)c1cc(C(=O)N2CCN(c3cc(OC)cc(OC)c3)CC2)n(-c2ccccc2)n1 (stereo not shown) [Example E125, [4-(3,5-Dimethoxyphenyl)piperazin-1-yl][5-(1-hydroxypropyl)-2-phenyl-2H-pyrazol-3-yl]methanone] | 4.1
COC(=O)/C=C/c1cc(C(=O)N2CCN(c3cc(OC)cc(OC)c3)CC2)n(-c2ccccc2)n1 [Example E126, Methyl E-3-{5-[4-(3,5-dimethoxyphenyl)piperazine-1-carbonyl]-1-phenyl-1H-pyrazol-3-yl}acrylate] | 0.8
COc1cc(OC)cc(N2CCN(C(=O)c3cc(C(C)O)nn3-c3ccccc3)CC2)c1 (stereo not shown) [Example E127, [4-(3,5-Dimethoxyphenyl)piperazin-1-yl][5-(1-hydroxyethyl)-2-phenyl-2H-pyrazol-3-yl]methanone] | 2.3
COc1cc(OC)cc(N2CCN(C(=O)c3cc(N4CCC4)nn3-c3ccccc3)CC2)c1 [Example E129, [5-(Azetidin-1-yl)-2-phenyl-2H-pyrazol-3-yl][4-(3,5-dimethoxyphenyl)piperazin-1-yl]methanone] | 0.9
C=CCNc1cc(C(=O)N2CCN(c3cc(OC)cc(OC)c3)CC2)n(-c2ccccc2)n1 [Example E130, (5-Allylamino-2-phenyl-2H-pyrazol-3-yl)[4-(3,5-dimethoxyphenyl)piperazin-1-yl]methanone] | 1.5
COc1cc(OC)cc(N2CCN(C(=O)c3cc(C(O)c4ccccc4)nn3-c3ccccc3)CC2)c1 (stereo not shown) [Example E131, [4-(3,5-Dimethoxyphenyl)piperazin-1-yl][5-(hydroxyphenylmethyl)-2-phenyl-2H-pyrazol-3-yl]methanone] | < 25
Cc1cc(C(=O)N2CCN(c3cccc(CO)c3)CC2)n(-c2ccccc2)n1 [Example E132, [4-(3-Hydroxymethylphenyl)piperazin-1-yl](5-methyl-2-phenyl-2H-pyrazol-3-yl)methanone] | 0.9
